Patent publication US8614219B2, “Substituted pyrimidin-4-one derivatives” (Sanofi-aventis, priority 2008, dated 2013)

target: GSK3β (Homo sapiens, UniProt P49841); test: Inhibitory activity against GSK3β (33P-ATP phosphorylation of prephosphorylated GS1 peptide, four protocols); type: biochemical; conditions: protocol 4: commercial GSK3beta (Millipore), 7.5 μM GS1 peptide, 10 μM ATP, 50 mM Hepes pH 7.2, 90 minutes at room temperature
Protocol: Four different protocols can be used. In a first protocol: 7.5 μM of prephosphorylated GS1 peptide and 10 μM ATP (containing 300,000 cpm of ^33P-ATP) were incubated in 25 mM Tris-HCl, pH 7.5, 0.6 mM DTT, 6 mM MgCl2, 0.6 mM EGTA, 0.05 mg/ml BSA buffer for 1 hour at room temperature in the presence of GSK3beta (total reaction volume: 100 microliters). In a second protocol: 4.1 μM of prephosphorylated GS1 peptide and 42 μM ATP (containing 260,000 cpm ^33P-ATP) were incubated in 80 mM Mes-NaOH, pH 6.5, 1 mM Mg acetate, 0.5 mM EGTA, 5 mM 2-mercaptoethanol, 0.02% Tween 20, 10% glycerol buffer for 2 hours at room temperature in the presence of GSK3beta. In a third protocol: 7.5 μM of prephosphorylated GS1 peptide and 10 μM ATP (containing 300,000 cpm of ^33P-ATP) were incubated in 50 mM Hepes, pH 7.2, 1 mM DTT, 1 mM MgCl2, 1 mM EGTA, 0.01% Tween 20 buffer for one hour at room temperature in the presence of GSK3beta (total reaction volume: 100 microliters). In a fourth protocol: 7.5 μM of prephosphorylated GS1 peptide and 10 μM ATP (containing 300,000 cpm of ^33P-ATP) were incubated in 50 mM Hepes, pH 7.2, 1 mM DTT, 1 mM MgCl2, 1 mM EGTA, 0.01% Tween 20 buffer for 90 minutes at room temperature in the presence of commercial GSK3beta (Millipore) (total reaction volume: 100 microliters). Inhibitors were solubilized in DMSO (final solvent concentration in the reaction medium, 1%). The reaction was stopped with 100 microliters of a solution made of 25 g polyphosphoric acid (85% P2O5), 126 ml 85% H3PO4, H2O to 500 ml and then diluted to 1:100 before use. An aliquot of the reaction mixture was then transferred to Whatman P81 cation exchange filters and rinsed with the solution described above. Incorporated ^33P radioactivity was determined by liquid scintillation spectrometry. The phosphorylated GS-1 peptide had the following sequence: NH2-[…](P)EDEE-COOH. (Woodgett, J. R. (1989) Analytical Biochemistry 180, 237-241.

GSK3β, sequence (P49841 whole entry): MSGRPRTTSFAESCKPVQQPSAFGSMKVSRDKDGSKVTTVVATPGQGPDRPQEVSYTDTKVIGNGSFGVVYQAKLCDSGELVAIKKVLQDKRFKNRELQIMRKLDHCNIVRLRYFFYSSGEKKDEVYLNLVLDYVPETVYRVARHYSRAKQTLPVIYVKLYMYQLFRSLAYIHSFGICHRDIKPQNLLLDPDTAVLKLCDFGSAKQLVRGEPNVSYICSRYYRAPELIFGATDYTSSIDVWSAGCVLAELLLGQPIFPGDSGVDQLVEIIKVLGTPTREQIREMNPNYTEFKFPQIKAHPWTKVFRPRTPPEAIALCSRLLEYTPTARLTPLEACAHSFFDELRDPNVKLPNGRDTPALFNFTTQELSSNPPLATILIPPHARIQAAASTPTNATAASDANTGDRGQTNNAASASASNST

SMILES	IC50
COc1ccccc1NC(=O)C1CCCn2c1nc(-c1ccncn1)cc2=O (racemic) [compound No. 1 of table 1, (+/−)-4-oxo-2-pyrimidin-4-yl-6,7,8,9-tetrahydro-4H-pyrido[1,2-a]pyrimidine-9-carboxylic acid N-(2-methoxy-phenyl)-amide]	27 nM
COc1cc(Cl)ccc1C(=O)NCC1CCCCn2c1nc(-c1ccncn1)cc2=O (racemic) [compound No. 2 of table 2, (+/−)-4-Chloro-2-methoxy-N-(4-oxo-2-pyrimidin-4-yl-4,6,7,8,9,10-hexahydro-pyrimido[1,2-a]azepin-10-ylmethyl)-benzamide]	30 nM
COc1cc(Cl)ccc1C(=O)NCC1CCCn2c1nc(-c1ccncn1)cc2=O (racemic) [compound No. 8 of table 1, (+/−)-4-Chloro-2-methoxy-N-(4-oxo-2-pyrimidin-4-yl-6,7,8,9-tetrahydro-4H-pyrido[1,2-a]pyrimidin-9-ylmethyl)-benzamide]	19 nM
